Assay results: patent publication US9522935B2, “Commands and method of treating cancer via RHO pathway” (priority 2013, dated 2016)

Tests used:
[1] = tested on: PancI (pancreatic cancer cell line); test: MTT assay, LD030 on PancI; format: cell-based; conditions: Homo sapiens, 48 hours, read-out: inhibition rate on cell growth
Protocol: (§1) MTT assay, a well known method known in the art, was used to analyze anticancer effects of compound LD030 on human cancer cell lines, such as, HepG2 (liver cancer cell line), PancI (pancreatic cancer cell line), NCI-H460 (lung cancer cell line), MCF-7 (breast adenocarcinoma cell line) and SF-268 (brain tumor cell lines). An LD030 solution was diluted gradually to obtain a serial of LD030 solutions with decreasing concentrations, which was used to treat various cancer cell lines mentioned above incubated in separate container. […] For incubating with HepG2 cell line, LD030's concentrations were 0.001 μM, 0.01 μM, 0.1 μM, 1 μM, 10 μM, 100 μM. For PancI cell line, the concentrations were 0.1 μM, 1 μM, 10 μM, 100 μM. For NCI-H460 cell line, the concentrations were 0.001 μM, 0.01 μM, 0.1 μM, 1 μM, 10 μM, 100 μM. For MCF-7 cell line, the concentrations were 0.001 μM, 0.01 μM, 0.1 μM, 1 μM, 10 μM, 100 μM. For SF-268 cell line, the concentrations were 0.001 μM, 0.01 μM, 0.1 μM, 1 μM, 10 μM, 100 μM.

[2] = tested on: SF-268 (brain tumor cell lines); test: MTT assay, LD030 on SF-268; format: cell-based; conditions: Homo sapiens; SF-268, 100 μM, 48 hours; read-out: inhibition rate on cell growth
Protocol: as §1

[3] = tested on: pancreatic cancer cell lines; test: Nude mouse model of pancreatic cancer (xenograft), tumor size; format: in vivo, NOD/SCID mice; conditions: 43 days; for tumor volume reduced: FIG. 15
Protocol: Two strains of pancreatic cancer cell lines were selected to be grafted to nonobese diabetic/severe combined immunodeficient (NOD/SCID) mice, and the tumor was inoculated in mouse ventral sides. About two weeks, they were used as a nude mouse model of pancreatic cancer. […] Each of the above groups. The treatment continued for 43 days (gemcitabine alone group 2 times a week; other groups 3 times a week), and then tumor size was recorded as shown in FIG. 16. […] Further experiments were conducted to study the effects of the combinational use of LD030 with gemcitabine as compared being used alone on tumor inhibition. Four treatment groups were set up: (a) blank control, (2) gemcitabine (25 mg/kg/time, 2 times a week), (3) LD030 (0.5 mg/kg/time, 3 times a week), (4) LD030 (0.5 mg/kg/time, 3 times a week) together with gemcitabine (25 mg/kg/time, 2 times a week).

HepG2 cells = test: Nude mouse model of hepatocellular carcinoma (HepG2), growth rate; format: in vivo, nude mice
Protocol: In contrast, LD30 (1 mg/kg/time, twice a day) reduced the growth rate of HepG2 cells by about 63%, with statistical significance (p<0.05) when compared with the ethanol control.
LD030 was also compared with Nexavar for their effects on the growth rate of HepG2 cells.
A further study was conducted on liver cancer cell line in nude mice (HepG2), where Nexavar's dosage was 30 mg/kg, twice a day and LD030's dosage was 1 mg/kg, twice a day along with a blank control and a combination of LD030 and Nexavar. The result is shown in FIG. 21 where Nr stands for Nexavar. […] When compared with the blank, LD030's effect is statistically significant (p<0.05).

[4] = tested on: Jak/STAT phosphorylation in PancI cells; test: Western Blotting of signal pathway proteins in PancI cells; format: cell-based, human
[5] = 50 μM, at 24 hours and 48 hours, versus blank control

For CC(=O)OC(C)(C)C(=O)CCC(C)C1CC[C@@]2(C)C34CC[C@H]5C(C)(C)[C@@H](O)CC[C@]5(C)C3(CC[C@]12C)O4 (some centres unmarked) [LD030], the inhibition at 100 µM [1] was > 80%, the inhibition at 100 µM [2] was > 80% and the tumor volume reduced ([3]; 0.5 mg/kg/time LD030, 3 time a week) was 21%. For the same molecule, the tumor volume reduced ([3]; 1 mg/kg/time LD030, 3 time a week) was 62%, the tumor size reduced ([3]; LD030 0.5 mg/kg/time, 3 times a week, FIG. 17) was 21% and the “effect on the tumor cells” value (HepG2 cells; HepG2 in nude mice, LD030 1 mg/kg twice a day alone, FIG. 21) was “inhibitory effect”. For the same molecule, the “reduction of growth rate of HepG2 cells” value (HepG2 cells; nude mouse model, 1 mg/kg, twice a day, versus blank carrier control) was “about 63%”, the p-p38 protein expression ([4]; 20 μM, versus blank control) was “increased” and the p-jak2 [4, 5] was “significantly reduced”. For the same molecule, the “p-stat3 (tyr705)” value [4, 5] was “significantly reduced” and the “expression of Cyclin B1” value ([4]; 50 μM, at 48 hours) was “decreased”.
